Results reported in US20100256107A1, “PREPARATION COMPOSITION” (Dainippon Sumitomo Pharma Co., Ltd., priority 2007, published 2010).

What was measured:
[1] = Control of coloration in an aqueous solution formulation containing sodium bicarbonate (absorbance 380 nm); assay type: physicochemical; settings: for change in absorbance, just after dissolution / change in absorbance, preservation time 1 hr / change in absorbance, preservation time 2 hr / change in absorbance, preservation time 3 hr / change in absorbance, preservation time 4 hr / change in absorbance, preservation time 5 hr / change in absorbance, preservation time 6 hr: 25° C., 380 nm
Experimental: Multiple vials were prepared, and Compound A, imipenem and sodium bicarbonate in amounts indicated in Table 11 were weighed, respectively and each mixture was put in each vial. A physiological saline (100 ml) was added to each vial to be dissolved. In addition, to a vial containing Tienam® for infusion (0.5 g potency/vial) was added a physiological saline (100 ml). Coloration (change of color) just after dissolution and when the solution was preserved at one hour intervals for 6 hours at 25° C. were measured by absorbency.
• Conditions of measurement by spectrophotometer; • cell: quartz 12.5 mm×12.5 mm×45 mm, capacity 3.5 ml • wavelength: 380 nm • measurement temperature: 25° C. • instrument: UV-2200A (Shimadzu)
The numbers described in columns of “just after dissolution” and each “preservation time” on Table 12 show values of change in absorbance just after dissolution when measured under the above conditions.

[2] = Stability in an aqueous solution formulation containing sodium carbonate (HPLC); assay type: physicochemical
Experimental: Multiple vials were prepared, and Compound A and sodium carbonate in amounts indicated in Table 9 were weighed and put in each vial. A physiological saline (100 ml) was added to each vial, amounts Compound A and its degradation, Compounds B and C were measured just after dissolving and after preserving for 6 hours at 25° C.
HPLC was Measured Under the Same Conditions as Test Example 1.
The numbers described in columns of “just after dissolution” and “after preservation for 6 hours at 25° C.” on Table 10 show area % per total peaks which appear until 55 minutes under the above HPLC conditions.

[3] = 0.5 g/vial + sodium bicarbonate 0.0 mg/vial in physiological saline 100 ml
[4] = 0.5 g/vial + sodium bicarbonate 1.0 mg/vial in physiological saline 100 ml
[5] = 0.5 g/vial + sodium bicarbonate 2.5 mg/vial in physiological saline 100 ml
[6] = 0.5 g/vial + sodium bicarbonate 5.0 mg/vial in physiological saline 100 ml
[7] = 0.5 g/vial + sodium bicarbonate 10 mg/vial in physiological saline 100 ml
[8] = 0.5 g/vial + sodium bicarbonate 20 mg/vial in physiological saline 100 ml
[9] = 0.5 g/vial + sodium bicarbonate 50 mg/vial in physiological saline 100 ml
[10] = Comp. A 0.5 g/vial + sodium carbonate 0.0 mg/vial in physiological saline 100 ml
[11] = Comp. A 0.5 g/vial + sodium carbonate 1.0 mg/vial in physiological saline 100 ml
[12] = Comp. A 0.5 g/vial + sodium carbonate 1.5 mg/vial in physiological saline 100 ml
[13] = Comp. A 0.5 g/vial + sodium carbonate 2.0 mg/vial in physiological saline 100 ml
[14] = Comp. A 0.5 g/vial + sodium carbonate 2.5 mg/vial in physiological saline 100 ml
[15] = Comp. A 0.5 g/vial + sodium carbonate 3.0 mg/vial in physiological saline 100 ml
[16] = Comp. A 0.5 g/vial + sodium carbonate 3.5 mg/vial in physiological saline 100 ml
[17] = Comp. A 0.5 g/vial + sodium carbonate 4.0 mg/vial in physiological saline 100 ml
[18] = Comp. A 0.5 g/vial + sodium carbonate 5.0 mg/vial in physiological saline 100 ml

For `C[C@H]1C=C(c2csc(SC3=C(C(=O)O)N4C(=O)[C@H]([C@@H](C)O)[C@H]4[C@H]3C)n2)CN1` [Compound A, (4R,5S,6S)-6-[(1R)-1-hydroxyethyl]-4-methyl-3-({4-[(5S)-5-methyl-2,5-dihydro-1H-pyrrol-3-yl]-1,3-thiazol-2-yl}sulfanyl)-7-oxo-1-azabicyclo[3.2.0]hept-2-ene-2-carboxylic acid], the “change in absorbance, just after dissolution” value (from here on “change in absorbance, just”) [1, 3] was 0.00 Abs, the “change in absorbance, preservation time 1 hr” value [1, 3] was 0.01 Abs and the “change in absorbance, preservation time 2 hr” value [1, 3] was 0.03 Abs. The “change in absorbance, preservation time 3 hr” value [1, 3] was 0.05 Abs, the “change in absorbance, preservation time 4 hr” value [1, 3] was 0.07 Abs and the “change in absorbance, preservation time 5 hr” value [1, 3] was 0.11 Abs. For the same molecule, the “change in absorbance, preservation time 6 hr” value [1, 3] was 0.13 Abs, the “change in absorbance, just” value [1, 4] was 0.00 Abs and the “change in absorbance, preservation time 1 hr” value [1, 4] was 0.00 Abs. The “change in absorbance, preservation time 2 hr” value [1, 4] was 0.01 Abs, the “change in absorbance, preservation time 3 hr” value [1, 4] was 0.02 Abs and the “change in absorbance, preservation time 4 hr” value [1, 4] was 0.04 Abs. The “change in absorbance, preservation time 5 hr” value [1, 4] was 0.06 Abs, the “change in absorbance, preservation time 6 hr” value [1, 4] was 0.08 Abs and the “change in absorbance, just” value [1, 5] was 0.00 Abs. The “change in absorbance, preservation time 1 hr” value [1, 5] was 0.00 Abs, the “change in absorbance, preservation time 2 hr” value [1, 5] was 0.00 Abs and the “change in absorbance, preservation time 3 hr” value [1, 5] was 0.00 Abs. The “change in absorbance, preservation time 4 hr” value [1, 5] was 0.00 Abs, the “change in absorbance, preservation time 5 hr” value [1, 5] was 0.01 Abs and the “change in absorbance, preservation time 6 hr” value [1, 5] was 0.01 Abs. The “change in absorbance, just” value [1, 6] was 0.00 Abs, the “change in absorbance, preservation time 1 hr” value [1, 6] was 0.00 Abs and the “change in absorbance, preservation time 2 hr” value [1, 6] was 0.00 Abs. The “change in absorbance, preservation time 3 hr” value [1, 6] was 0.00 Abs, the “change in absorbance, preservation time 4 hr” value [1, 6] was 0.00 Abs and the “change in absorbance, preservation time 5 hr” value [1, 6] was 0.00 Abs. For the same molecule, the “change in absorbance, preservation time 6 hr” value [1, 6] was 0.00 Abs, the “change in absorbance, just” value [1, 7] was 0.00 Abs and the “change in absorbance, preservation time 1 hr” value [1, 7] was 0.00 Abs. The “change in absorbance, preservation time 2 hr” value [1, 7] was 0.00 Abs, the “change in absorbance, preservation time 3 hr” value [1, 7] was 0.00 Abs and the “change in absorbance, preservation time 4 hr” value [1, 7] was 0.00 Abs. For the same molecule, the “change in absorbance, preservation time 5 hr” value [1, 7] was 0.00 Abs, the “change in absorbance, preservation time 6 hr” value [1, 7] was 0.00 Abs and the “change in absorbance, just” value [1, 8] was 0.00 Abs. The “change in absorbance, preservation time 1 hr” value [1, 8] was 0.00 Abs, the “change in absorbance, preservation time 2 hr” value [1, 8] was 0.00 Abs and the “change in absorbance, preservation time 3 hr” value [1, 8] was 0.00 Abs. The “change in absorbance, preservation time 4 hr” value [1, 8] was 0.00 Abs, the “change in absorbance, preservation time 5 hr” value [1, 8] was 0.00 Abs and the “change in absorbance, preservation time 6 hr” value [1, 8] was 0.00 Abs. For the same molecule, the “change in absorbance, just” value [1, 9] was 0.00 Abs, the “change in absorbance, preservation time 1 hr” value [1, 9] was 0.00 Abs and the “change in absorbance, preservation time 2 hr” value [1, 9] was 0.00 Abs. The “change in absorbance, preservation time 3 hr” value [1, 9] was 0.00 Abs, the “change in absorbance, preservation time 4 hr” value [1, 9] was 0.00 Abs and the “change in absorbance, preservation time 5 hr” value [1, 9] was 0.00 Abs. The “change in absorbance, preservation time 6 hr” value [1, 9] was 0.00 Abs, the “suppression of coloration of the solution” value ([1]; at least 2.5 mg (0.005 part by weight) of sodium bicarbonate per 500 mg) was “observed” and the “coloration by the visual inspection compared with a solution just after dissolution” value ([1]; sodium bicarbonate 2.5 mg per 500 mg, physiological saline, 6 hours at 25° C.) was “coloration was not observed by the visual inspection”. For the same molecule, the “Comp. A after preservation for 6 hrs. 25° C.” value (shortened to “Comp. A after preservation”) [2, 10] was 96.3 area %, the “Comp. A just after dissolution” value [2, 10] was 99.0 area % and the “Comp. B after preservation for 6 hrs. 25° C.” value (from here on “Comp. B after preservation”) [2, 10] was 2.6 area %. The “Comp. B just after dissolution” value [2, 10] was 0.5 area %, the “Comp. C after preservation for 6 hrs. 25° C.” value (“Comp. C after preservation” for short) [2, 10] was 0.4 area % and the “Comp. C just after dissolution” value [2, 10] was 0.0 area %. The “Comp. A after preservation” value [2, 11] was 96.7 area %, the “Comp. A just after dissolution” value [2, 11] was 99.0 area % and the “Comp. B after preservation” value [2, 11] was 2.6 area %. The “Comp. B just after dissolution” value [2, 11] was 0.6 area %, the “Comp. C after preservation” value [2, 11] was 0.2 area % and the “Comp. C just after dissolution” value [2, 11] was 0.0 area %. For the same molecule, the “Comp. A after preservation” value [2, 12] was 96.5 area %, the “Comp. A just after dissolution” value [2, 12] was 98.9 area % and the “Comp. B after preservation” value [2, 12] was 2.8 area %. For the same molecule, the “Comp. B just after dissolution” value [2, 12] was 0.5 area %, the “Comp. C after preservation” value [2, 12] was no more than 0.1 area % and the “Comp. C just after dissolution” value [2, 12] was 0.0 area %. For the same molecule, the “Comp. C after preservation” value ([2]; Comp. A 0.5 g/vial + sodium carbonate 1.5 mg/vial in physiological saline 100 ml, listed as Comp. A) was 0.0 area %, the “Comp. A after preservation” value [2, 13] was 96.2 area % and the “Comp. A just after dissolution” value [2, 13] was 99.0 area %. The “Comp. B after preservation” value [2, 13] was 3.0 area %, the “Comp. B just after dissolution” value [2, 13] was 0.5 area % and the “Comp. C after preservation” value [2, 13] was 0.0 area %. The “Comp. C just after dissolution” value [2, 13] was 0.0 area %, the “Comp. A after preservation” value [2, 14] was 96.0 area % and the “Comp. A just after dissolution” value [2, 14] was 98.9 area %. For the same molecule, the “Comp. B after preservation” value [2, 14] was 3.2 area %, the “Comp. B just after dissolution” value [2, 14] was 0.5 area % and the “Comp. C after preservation” value [2, 14] was 0.0 area %. The “Comp. C just after dissolution” value [2, 14] was 0.0 area %, the “Comp. A after preservation” value [2, 15] was 95.7 area % and the “Comp. A just after dissolution” value [2, 15] was 99.0 area %. For the same molecule, the “Comp. B after preservation” value [2, 15] was 3.6 area %, the “Comp. B just after dissolution” value [2, 15] was 0.5 area % and the “Comp. C after preservation” value [2, 15] was 0.0 area %. For the same molecule, the “Comp. C just after dissolution” value [2, 15] was 0.0 area %, the “Comp. A after preservation” value [2, 16] was 95.4 area % and the “Comp. A just after dissolution” value [2, 16] was 98.9 area %. The “Comp. B after preservation” value [2, 16] was 3.8 area %, the “Comp. B just after dissolution” value [2, 16] was 0.5 area % and the “Comp. C after preservation” value [2, 16] was 0.0 area %. The “Comp. C just after dissolution” value [2, 16] was 0.0 area %, the “Comp. A after preservation” value [2, 17] was 95.1 area % and the “Comp. A just after dissolution” value [2, 17] was 99.0 area %. For the same molecule, the “Comp. B after preservation” value [2, 17] was 4.1 area %, the “Comp. B just after dissolution” value [2, 17] was 0.5 area % and the “Comp. C after preservation” value [2, 17] was 0.0 area %. For the same molecule, the “Comp. C just after dissolution” value [2, 17] was 0.0 area %, the “Comp. A after preservation” value [2, 18] was 94.8 area % and the “Comp. A just after dissolution” value [2, 18] was 98.9 area %. For the same molecule, the “Comp. B after preservation” value [2, 18] was 4.5 area %, the “Comp. B just after dissolution” value [2, 18] was 0.6 area % and the “Comp. C after preservation” value [2, 18] was 0.0 area %. For the same molecule, the “Comp. C just after dissolution” value [2, 18] was 0.0 area % and the “reduction of amount of Compound A” value ([2]; sodium carbonate increased to 5 mg from 2 mg per Compound A 500 mg, 6 hours at 25° C.) was 1.4%.
